From US20070259857A1, “Amorphous form of Olanzapine” (priority 2003, published 2007)

Test: Storage stability of ground amorphous olanzapine at room temperature, by XRPD analysis
Assay type: physicochemical
Settings: ground sample of Example One stored at room temperature for 13 weeks
Procedure: Figure Two is an XRPD spectrum of amorphous olanzapine. X-ray powder diffraction (XRPD) was performed on a Bruker D8 advance difractometer, at 25° C. between the angles of 4° and 50° 2 theta.
The sample of ground olanzapine was stored at room temperature for 13 weeks for stability testing using XRPD analysis.

For `Cc1cc2c(s1)Nc1ccccc1N=C2N1CCN(C)CC1` [olanzapine, 2-methyl-4-(4-methyl-1-piperazinyl)-10H-thieno[2,3-b][1,5]benzodiazepine], the “Stability testing using XRPD analysis: difference in XRPD spectrum between the original and the stored sample” value was “No difference was observed”.
